The target in one series is T1, human opioid δ receptor (Homo sapiens, UniProt P41143).
T1 construct: host or cells: CHO cells
The series can be described thus: Opioid receptor function test (Lance Ultra cAMP Kit), δ receptor. Format: cell-based. Here is the method:
Opioid Receptor Function Test
The functional activities of the compounds provided by the present invention on the μ, δ, and κ opioid receptors were investigated.
The test was performed by using Lance Ultra cAMP Kit (PerkinElmer) according to a method predetermined for the kit. In the evaluation of the agonistic activity, CHO cells expressing each of the human opioid receptors (δ, μ, and κ, accession numbers and catalog numbers are mentioned below) and 10 μM of each test compound were reacted for 30 minutes in an assay buffer (1× HBSS, […], pH 7.4, […] (isobutylmethylxanthine), 7.5% BSA) in the presence of forskolin. Subsequently, the cAMP detection reagent included in the kit was added, and 1 hour afterward, time-resolved fluorescence measurement was performed by using the EnVision plate reader (PerkinElmer). The test compounds and the control drugs (δ: SNC80, μ: DAMGO, κ: U-69593) were evaluated in a concentration range of 10^−12 to 10^−5 M, a dose-response curve of each test compound was obtained from the fluorescence values at 665 nm, and EC50 value and the Emax value were calculated. The Emax value was calculated as a ratio of the maximum reaction of the test compound to the maximum reaction of each control drug, which is taken as 100%.
• δ: Catalog No. CT4607, Accession No. NM_000911.2 • μ: Catalog No. CT4605, Accession No. NM_000914 • κ: Catalog No. CT4606, Accession No. NM_000912 (ChanTest Corporation)

The test system of a further series is C57BL/6N male mice. The series can be described thus: Mouse elevated plus maze test. Format: in vivo. Particulars: subcutaneous, 1 mg/kg, 30 minutes before test (FIG. 2). Here is the method: Mouse Elevated Plus Maze Test
For the test, 5 to 6 weeks old C57BL/6N male mice were used. On a plus maze apparatus consisting of a wall-less running route (open arm, width 6 cm, length 30 cm) and a running route with a wall (closed arm, width 6 cm, length 30 cm, height of wall 15 cm), and having a height of 40 cm, a mouse was put so as to be directed to the running route with a wall, and allowed to spontaneously enter into the plus maze. Each test substance was dissolved in saline or 0.005 N HCl in saline, and subcutaneously administered on the back 30 minutes before the start of the test. At the time of the start of the test, video recording with a video camera was started, the time at which the mouse entered into the plus maze is considered to be the start of the test, and exploratory behavior was recorded for 5 minutes. On the basis of the video image, staying times in the running routes were determined, and wall-less running route staying time ratio (%) was calculated.

A further series concerns Wistar male rats. The experiment in a line: Rat elevated plus maze test. The series is classed as in vivo. Particulars: oral, 3 mg/kg, 2 hours before test (FIG. 6). Here is the method: Rat Elevated Plus Maze Test
Anxiolytic effects of the compounds provided by the present invention were investigated by the rat elevated plus maze test.
For the test, 7 to 9 weeks old Wistar male rats were used. […] Each test substance was dissolved in a 4.5% aqueous solution of cyclodextrin, and orally administered 2 hours before the start of the test. The test data were automatically analyzed by using video image action analysis software (Smart3.0, PanLab S.L., PanLab), and wall-less running route staying time ratio (%) was calculated.

A short description of another series: Metabolic stability test. The series is classed as in vitro ADME. Particulars: liver microsomes; human hepatic microsomes, 0 to 60 minutes; read-out: metabolic clearance CLint. The method, then:
Human hepatic microsomes and a test substance were reacted for a certain period of time (0 to 60 minutes). The test substance, which was not metabolized in the reaction sample, was measured, and remaining ratio was calculated. The test substance-remaining ratio at the time when the reaction time is 0 hour is taken as 100%. The remaining ratio after incubation was plotted against time as a log-linear plot to obtain a regression line (y=100 e^−kt, k=inclination of straight line: clearance rate constant), and metabolic clearance CLint (mL/min/kg) was calculated by using the following equation. CLint*=k(−min)×52.5(mg MS protein/g liver)×26(g liver/kg)/MS protein (mg MS protein/mL) • *: Davies, B. and Morris T., Physiological parameters in laboratory animals and humans, Pharm. Res., 10(7)1093-1095, 1993 (Test Results)
On the technique in general: Liver microsomes are a subcellular fraction often used to study metabolism.

T1 sequence (P41143 whole entry): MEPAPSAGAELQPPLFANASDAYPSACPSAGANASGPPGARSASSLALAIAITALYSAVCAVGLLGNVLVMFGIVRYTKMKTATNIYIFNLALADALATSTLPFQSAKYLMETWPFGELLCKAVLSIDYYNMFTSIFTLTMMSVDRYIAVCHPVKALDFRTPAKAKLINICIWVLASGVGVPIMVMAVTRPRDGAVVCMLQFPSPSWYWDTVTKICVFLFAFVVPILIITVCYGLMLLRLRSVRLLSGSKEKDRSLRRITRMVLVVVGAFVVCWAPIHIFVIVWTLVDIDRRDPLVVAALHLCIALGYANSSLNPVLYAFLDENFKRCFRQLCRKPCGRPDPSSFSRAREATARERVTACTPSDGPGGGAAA

In the case of `O=C(c1cccc(=O)[nH]1)N1C[C@H]2C[C@@]34CC[C@@H]1[C@@H]2[C@@]31CCN(CC2CC2)[C@@H]4Cc2ccc(O)cc21` [Example 7, 6-((1S,3aR,5aS,6R,11bR,11cS)-14-(cyclopropylmethyl)-10-hydroxy-2,3,3a,4,5,6,7,11c-octahydro-1H-6,11b-(epiminoethano)-1,5a-methanonaphtho[1,2-e]indole-3-carbonyl)pyridin-2(1H)-one], the concentration giving a half-maximal response (EC50) on human opioid δ receptor (CHO cells expressing human δ receptor, cAMP, in the presence of forskolin) is below 3 nM. For the same molecule, the Emax on human opioid δ receptor (ratio to maximum reaction of control drug SNC80 taken as 100%) stood at 99%. The “wall-less running route staying time ratio” value in the series on C57BL/6N male mice and in the series with Wistar male rats was “significantly increased” throughout. The CLint scaled in the series “Metabolic stability test” was determined as 5.6 mL/min/kg.

One may read the EC50 as the concentration at which the effect is half-maximal. What is called Emax is the size of the effect at its maximum, as opposed to the concentration needed.
